# Experiments:
# A-549 cells = experiment: MTT assay, A-549 cells; format: cell-based, human; details: for IC50: A-549 human lung carcinoma, MTT, 24 h, mean SD
# Protocol: (§1) Colon cancer (SW480), breast adenocarcinoma (MDA-MB-231), lung carcinoma (A-549), prostate cancer (PC3), and immortal keratinocyte (HaCaT) cell lines of human origin were acquired from the American Type Culture Collection (ATCC). The recommended culture media and protocols provided by ATCC were as follows: SW480 were cultured in Minimum Essential Medium (MEM), MDA-MB-231, A-549, and HaCaT cells were cultured in Dulbecco’s Modified Eagle Medium (DMEM), while PC3 was cultured in Roswell Park Memorial Institute Medium (RPMI). The culture media were supplemented with 10% fetal bovine serum (FBS), penicillin (100 U/mL), and streptomycin (100 μg/mL). Cells were maintained in a humidified incubator at 37 °C with 5% CO2. Passaging was carried out upon reaching 80–90% confluence using 0.25% trypsin (Gibco Life Technologies, New York, NY, USA) treatment prior to experimentation.
# (§2) Cell viability was assessed utilizing the MTT assay, which relies on the conversion of 3-(4,5-dimethylthiazol-2-yl)-2,5-diphenyltetrazolium bromide salt (MTT) to formazan crystals by mitochondrial dehydrogenases in viable cells. Initially, cells were plated in 96-well plates at a density of 1 × 10^4 cells per well and allowed to attach for 24 h at 37 °C in a CO2 incubator. Subsequently, the culture medium was replaced with fresh medium containing various concentrations of the test compounds (ranging from 1 to 100 μM), and cells were further cultured for 24 h at 37 °C in a CO2 incubator. Control wells were left untreated for comparison. After the incubation period, MTT solution (0.5 mg/mL in serum-free medium) was added to each well, followed by a 4-h incubation at 37 °C in a CO2 incubator. The medium was then aspirated, and the formazan crystals were dissolved by adding a mixture of isopropanol and DMSO (1:1). The absorbance of the resulting solution was measured at 570 nm using a UVM 340 reader (ASYS Hitech GmbH, Seekirchen am Wallersee, Austria). IC50 values were determined using GraphPad software (GraphPad Prism 8 Software).
# PC3 cells = experiment: MTT assay, PC3 cells; format: cell-based, human; details: for SI (Selectivity Index): IC50 for normal cell line (HaCaT)/IC50 PC3; for IC50: PC-3, PC3 human metastatic prostate cancer, MTT, 24 h, mean SD
# Protocol: as §1, §2
# MDA-MB-231 cells = experiment: MTT assay, MDA-MB-231 cells; format: cell-based, human; details: for IC50: MDA-MB-231 human breast adenocarcinoma, MTT, 24 h, mean SD
# Protocol: as §1, §2
# SW620 cells = experiment: MTT assay, SW620 cells; format: cell-based, human; details: for SI (Selectivity Index): IC50 for normal cell line (HaCaT)/IC50 SW620; for IC50: SW620 human metastatic colon cancer, MTT, 24 h, mean SD
# HaCaT cells = experiment: MTT assay, HaCaT normal cells; format: cell-based; details: HaCaT human immortal keratinocyte (normal cells), 24 h, mean SD
# Protocol: as §1, §2
Structure (SMILES),IC50 (A-549 cells; A549) [µM],SI (Selectivity Index) (A-549 cells; IC50 for normal cell line (HaCaT)/IC50 A-549),SI (Selectivity Index) (PC3 cells),IC50 (PC3 cells) [µM],SI (Selectivity Index) (MDA-MB-231 cells; IC50 for normal cell line (HaCaT)/IC50 MDA-MB-231),IC50 (MDA-MB-231 cells) [µM],SI (Selectivity Index) (SW620 cells),IC50 (SW620 cells; SW-620) [µM],IC50 (HaCaT cells) [µM],IC50 (A-549 cells) [µM],IC50 (SW620 cells) [µM],melting point [°C]
"COc1cccc2c1C(=O)c1c(O)c3c(c(O)c1C2=O)C[C@@](O)(C(=O)CO)C[C@@H]3O[C@H]1C[C@H](N)[C@H](O)[C@H](C)O1 [Doxo-rubicin, doxorubicin]",0.2 ± 0.09,1.5,1,0.3 ± 0.1,0.19,1.6 ± 0.23,1.0,0.3 ± 0.1,0.3 ± 0.1,,,
"N.N.[Cl][Pt][Cl] [Cisplatin, cisplatin]",,,,,,7.8 ± 0.98,,,6.3 ± 0.7,3.2 ± 1.24,6.7 ± 1.1,
"COc1ccc(C=NNC(=O)c2nc([N+](=O)[O-])cn2C)c(O)c1 [Compound 30, N’-[(2-hydroxy-4-methoxyphenyl)methylidene]-1-methyl-4-nitro-1H-imidazole-2-carbohydrazide]",> 100,,1.4,70.2 ± 4.2,,> 100,1.5,64.2 ± 6.88,97 ± 5.48,,,214 to 216

# From PMC11243693, “Synthesis and Biological Evaluation of New Compounds with Nitroimidazole Moiety” (Molecules, 2024)
